Measured values as given in patent US20230137836A1, “NOVEL PROLYLFK506 DERIVATIVES HAVING NEURITE GROWTH AND SYNAPSE FORMATION ACTIVITIES AND USES THEREOF” (Seoul National University R&DB Foundation, priority 2020, published 2023).
In brackets after ≈: the same amount, converted by molar mass.

How the values were obtained:
HEK293 T Cell = assay: MTT assay for cytotoxicity; format: cell-based; settings: 100 nM to 1,000 nM, FIG. 29
Description: (§1) To examine safety of the four kinds of novel compounds, an MTT assay for a cytotoxicity test, an Ames test for rapid evaluation of genotoxicity, and an hERG assay for evaluation of potential effects on cardiac repolarization were carried out. Methods generally used were conducted for the examination.
(§2) In detail, in the MTT assay, 80 to 800 times higher concentrations (100 nM to 1,000 nM) than the […] (1 ng/mL=1.24 nM) were determined as test concentrations of the four kinds of novel compounds. and the drug cytotoxicity was measured in mammalian normal cells (HEK293 T Cell). In the Ames test, the four kinds of novel compounds were treated at a concentration of 4 μg, 16 μg, 64 μg per plate, respectively, and the four kinds of novel compounds were evaluated by examining whether reverse mutation was induced a histidine auxotroph strain (Salmonella typhimurium TA98) and a tryptophan auxotroph strain (Escherichia coli WP2 uvrA). In the hERG assay, 0 μM, 2 μM, 8 μM, and 32 μM of each of the four kinds of novel compounds were treated to two or more numbers of cells. One CHO hERG cell was perfused with a normal tyrode solution. After confirming that the hERG channel current was recorded consistently for 3 to 4 sweeps, an excipient control group and the groups, each treated with one of the four kinds of novel compounds, were perfused for about 1 minute to 2 minutes or longer, and the magnitude of the hERG channel current was allowed to constantly record, and the magnitude of the relative current (pA or nA) and the suppression rate (%) were measured.

[1] = test system: Escherichia coli WP2 uvrA; assay: Ames test (reverse mutation), tryptophan auxotroph strain; settings: 4 μg, 16 μg, 64 μg per plate
Description: as §1, §2

[2] = test system: nigrostriatal dopaminergic pathway; assay: MPTP-induced Parkinson's disease animal model, TH immunohistochemistry; format: in vivo, mouse; settings: cannula injection into brain for 3 days, 5 mg/mL, MPTP i.p. on day 2, measured day 4, FIG. 28A
[3] = test system: Salmonella typhimurium TA98; assay: Ames test (reverse mutation), histidine auxotroph strain; settings: 4 μg, 16 μg, 64 μg per plate
Description: as §1, §2

[4] = test system: primary cultured murine hippocampal neurons; assay: functional synaptogenic activity, patch-clamp recordings of excitatory synaptic currents; format: cell-based; settings: treatment concentration 1 ng/mL, days 10-14 after primary culture
Description: The functional synaptogenic activity of the four kinds of novel compounds was examined using primary cultured murine hippocampal neurons according to a method reported by D. Park. et al. (Sci. Rep. 7:7260, 2017). In detail, hippocampal neurons on days 10-14 after primary culture while being exposed to FK506 or each of the four kinds of novel compounds (treatment concentration: 1 ng/mL) was subjected to patch-clamp recordings to measure frequency of excitatory synaptic currents. The frequency of excitatory synaptic currents is used as an index for changes in the number of synapses.

hERG channel = target: T1, hERG channel (Homo sapiens, UniProt Q12809); assay: hERG assay in CHO hERG cells; format: cell-based; settings: 0 μM, 2 μM, 8 μM, and 32 μM
T1 construct: expressed in transfected cells; host or cells: CHO hERG cells
T1 sequence (Q12809 whole entry): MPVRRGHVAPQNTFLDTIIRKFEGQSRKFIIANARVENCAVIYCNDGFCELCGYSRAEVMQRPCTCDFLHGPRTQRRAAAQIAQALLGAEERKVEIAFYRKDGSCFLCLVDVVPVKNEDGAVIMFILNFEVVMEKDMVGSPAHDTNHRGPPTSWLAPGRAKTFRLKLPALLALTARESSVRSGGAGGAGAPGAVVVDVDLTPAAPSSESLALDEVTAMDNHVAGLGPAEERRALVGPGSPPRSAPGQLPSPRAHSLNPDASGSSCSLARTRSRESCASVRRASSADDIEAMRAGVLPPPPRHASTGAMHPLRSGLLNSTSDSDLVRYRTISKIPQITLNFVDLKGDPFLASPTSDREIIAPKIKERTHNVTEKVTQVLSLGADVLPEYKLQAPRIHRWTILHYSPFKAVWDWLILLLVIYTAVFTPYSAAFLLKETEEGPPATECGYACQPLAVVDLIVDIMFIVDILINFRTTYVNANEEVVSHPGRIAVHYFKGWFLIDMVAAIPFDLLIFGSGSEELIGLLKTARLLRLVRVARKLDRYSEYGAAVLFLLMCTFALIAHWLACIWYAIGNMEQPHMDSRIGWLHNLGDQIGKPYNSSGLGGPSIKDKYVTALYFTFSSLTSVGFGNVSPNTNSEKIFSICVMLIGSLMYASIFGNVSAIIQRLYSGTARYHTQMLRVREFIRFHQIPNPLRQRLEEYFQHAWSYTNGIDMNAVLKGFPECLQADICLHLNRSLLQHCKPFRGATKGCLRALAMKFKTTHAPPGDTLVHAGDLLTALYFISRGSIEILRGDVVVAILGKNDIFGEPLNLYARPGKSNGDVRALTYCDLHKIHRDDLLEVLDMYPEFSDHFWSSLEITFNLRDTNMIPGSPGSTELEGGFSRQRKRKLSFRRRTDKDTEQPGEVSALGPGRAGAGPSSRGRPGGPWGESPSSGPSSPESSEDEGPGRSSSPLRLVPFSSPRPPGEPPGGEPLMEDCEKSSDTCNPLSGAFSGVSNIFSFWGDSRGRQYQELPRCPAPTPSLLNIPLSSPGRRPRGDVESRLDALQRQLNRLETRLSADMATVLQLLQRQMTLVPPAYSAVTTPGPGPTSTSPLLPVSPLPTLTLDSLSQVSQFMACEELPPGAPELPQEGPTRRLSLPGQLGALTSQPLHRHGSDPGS
Description: Further, in still another specific embodiment of the present invention, safety was confirmed in a 3-(4,5-dimethylthiazol-2-yl)-2,5-diphenyltetrazolium bromide (MTT) assay (FIG. 29) for cytotoxicity tests of the four kinds of novel compounds, an Ames test for rapid evaluation of genotoxicity, a human eag-related gene (hERG) assay for evaluation of potential effects on cardiac repolarization.
as §1, §2

CD4+ T cells = assay: in vitro T-cell activation assay (CTV retention, flow cytometry); format: cell-based, mouse
Description: The reduced level of the immunosuppressive activity of the four kinds of novel compounds was examined using a common in vitro T-cell activation assay (J. Immunol. 143:718-726, 1989). […] When CD4+ T cells are stained with Cell Trace™ Violet (CTV), CTV retention of each cell decreases, as cells divide and T cells proliferate according to the immune response, and thus immunosuppressive activity was examined using the CTV retention as an index.
Single cells were isolated from the spleen of 6- to 8-week-old B6J laboratory mouse, and CD4+ T cells were isolated using MagniSort® Mouse CD4 T cell Enrichment Kit (eBioscience). CD4+ T cells were stained with Cell Trace™ Violet (CTV) Cell Proliferation Kit (Molecular Probes) and FK506 or each of the four kinds of novel compounds was added at a concentration of 0.01 ng/mL, 0.1 ng/mL, 1 ng/mL, 10 ng/mL, 100 ng/mL, 1000 ng/mL, followed by incubation for 72 hours. For activation of T cells. Dynabeads® Mouse T-Activator CD3/CD28 (Gibco) was used. As a control group, non-activated T cells were used. After incubation, CTV intensity was analyzed by flow cytometry.

[5] = test system: primary cultured murine hippocampal neurons; assay: neurite outgrowth in primary cultured hippocampal neurons; format: cell-based; settings: treatment concentration 1 ng/mL, neurite lengths, FIG. 26
Description: The neuronal growth-promoting ability of the four kinds of novel compounds was examined using primary cultured murine hippocampal neurons according to a method reported by Jing Sun et al. (J. Neuroinflam. 15:180, 2018). […] The neurite lengths were measured on photographic prints according to a previously reported method (J. Pharmacol. Exp. Ther. 302:1278-1285, 2002).

Molecule	cytotoxicity (MTT) (HEK293 T Cell)	reverse mutation induction (Ames test) [1]	recovery in the density of neuron fibers [2]	reverse mutation induction (Ames test) [3]	spontaneous excitatory synaptic currents (sEPSCs), frequency [4]	risk of cardiac repolarization (hERG channel current) (hERG channel)	Immunosuppression IC50 (CD4+ T cells; activated mouse CD4+ T cells (CD3/CD28), 72 hours incubation, CTV intensity by flow cytometry)	neurite outgrowth effect [5]	immunosuppressive activity as compared with FK506 (CD4+ T cells; T cell proliferation, CTV intensity, Table 7 and FIG. 25)	IC50 (CD4+ T cells; activated mouse CD4+ T cells (CD3/CD28), 72 hours incubation, CTV intensity by flow cytometry, read-out: Immunosuppression IC50)
CCC[C@@H]1/C=C(\C)C[C@H](C)C[C@H](OC)[C@H]2O[C@@](O)(CC(=O)N3CCC[C@H]3C(=O)O[C@H](/C(C)=C/[C@@H]3CC[C@@H](O)[C@H](OC)C3)[C@H](C)[C@@H](O)CC1=O)[C@H](C)C[C@@H]2OC [9-deoxo-36,37-dihydro-prolyl FK506]	no cytotoxicity was observed	without inducing reverse mutations	superior recovery in the density of neuron fibers, as compared to those treated with FK506	without inducing reverse mutations	3.29±0.22	without risk of cardiac repolarization				
C=CC[C@@H]1/C=C(\C)C[C@H](C)C[C@H](OC)[C@H]2O[C@@](O)(C(=O)C(=O)N3CCCC[C@H]3C(=O)O[C@H](/C(C)=C/[C@@H]3CC[C@@H](O)[C@H](OC)C3)[C@H](C)[C@@H](O)CC1=O)[C@H](C)C[C@@H]2OC [FK506]					2.61±0.18					
CCC[C@@H]1/C=C(\C)C[C@H](C)C[C@H](OC)[C@H]2O[C@@](O)(CC(=O)N3CCC[C@H]3C(=O)O[C@H](/C(C)=C/[C@@H]3CC[C@@H](O)[C@H](O)C3)[C@H](C)[C@@H](O)CC1=O)[C@H](C)C[C@@H]2OC [9-deoxo-31-O-demethyl-36,37-dihydro-prolyl FK506]	no cytotoxicity was observed	without inducing reverse mutations	superior recovery in the density of neuron fibers, as compared to those treated with FK506	without inducing reverse mutations	2.63±0.27	without risk of cardiac repolarization				
9-deoxo-prolyl FK520		without inducing reverse mutations	superior recovery in the density of neuron fibers, as compared to those treated with FK506	without inducing reverse mutations		without risk of cardiac repolarization	3.2888 µg/mL	superior neurite outgrowth effect, as compared with FK506		
CC[C@@H]1/C=C(\C)C[C@H](C)C[C@H](OC)[C@H]2O[C@@](O)(CC(=O)N3CCC[C@H]3C(=O)O[C@H](/C(C)=C/[C@@H]3CC[C@@H](O)[C@H](O)C3)[C@H](C)[C@@H](O)CC1=O)[C@H](C)C[C@@H]2OC [9-deoxo-31-O-demethyl-prolyl FK520]	no cytotoxicity was observed	without inducing reverse mutations	superior recovery in the density of neuron fibers, as compared to those treated with FK506	without inducing reverse mutations		without risk of cardiac repolarization			lowest immunosuppressive activity	7.09 µg/mL (≈ 9.45 µM)
